Source: US20240252581A1, “COMPOSITIONS AND METHODS FOR TREATING RESPIRATORY DISTRESS” (S.I.S. SHULOV INNOVATIVE SCIENCE LTD., priority 2021, published 2024)
Where “and” joins values, the source holds several entries; their conditions need not be identical. Identical values can stand only once. Entries after “also recorded” stand apart in the source; their conditions may differ. Square brackets hold non-standard residues; d marks the D form. Peptide text beside a SMILES is read from it. * marks the point of attachment. pGlu = O=C1CC[C@@H](C(=O)O)N1; Octanoyl = CCCCCCCC(=O)*

Tested on: B cells, T cells, eosinophils, neutrophils, macrophages/dendritic cells in BALF
Experiment: LPS-induced acute lung injury / ARDS mouse model: BALF differential cell count by FACS
Format: in vivo, BALB/c mice
Set-up: key to Macrophages / B cells / T cells / Eosinophils / Neutrophils: (+) indicates activation; (−) indicates inhibition
Conditions: for B cells (%) / Eosinophils (%) / Macrophages & dendritic cells (%) / Neutrophils (%) / T cells (%) / Eosinophils / Macrophages / B cells / Neutrophils / T cells: BALF
Experimental: In order to test the efficacy of ZEP3 sodium on lung inflammation, the lipopolysaccharide (LPS)-induced acute lung injury model was used. In particular, LPS was administered intratracheally at doses of 10 or 40 mg/kg body weight (BW) corresponding to 0.2 or 0.8 mg/mouse, respectively.
ZEP3 sodium was administered by inhalation (INH) at doses of 25 or 250 mg/kg BW (0.5 or 5 mg/mouse, respectively), or intratracheally (IT) at doses of 5 or 20 mg/kg BW (0.1 or 0.4 mg/mouse, respectively) 6 hours after LPS administration and its effect was measured 72 hours following administration in the branchial alveolar fluid (BALF) using FACS instrumentation. […]

[1] = Group 2: ZEP3Na 0.1 mg IT, no LPS, group mean
[2] = Group 2: ZEP3Na 0.1 mg IT, no LPS, individual mice
[3] = Group 3: ZEP3Na 0.4 mg IT, no LPS, group mean
[4] = Group 3: ZEP3Na 0.4 mg IT, no LPS, individual mice
[5] = Group 4: LPS 0.8 mg + ZEP3Na 0.1 mg IT, group mean
[6] = Group 4: LPS 0.8 mg + ZEP3Na 0.1 mg IT, individual mice
[7] = Group 5: LPS 0.8 mg + ZEP3Na 0.4 mg IT, group mean
[8] = Group 5: LPS 0.8 mg + ZEP3Na 0.4 mg IT, individual mice
[9] = Group 8: LPS 0.2 mg + ZEP3Na 0.1 mg IT, group mean
[10] = Group 8: LPS 0.2 mg + ZEP3Na 0.1 mg IT, individual mice
[11] = Group 9: LPS 0.2 mg + ZEP3Na 0.4 mg IT, group mean
[12] = Group 9: LPS 0.2 mg + ZEP3Na 0.4 mg IT, individual mice
[13] = LPS 0.2 mg + ZEP3Na (IT) 0.1 mg
[14] = LPS 0.2 mg + ZEP3Na (IT) 0.4 mg
[15] = LPS 0.8 mg + ZEP3Na (INH) 0.5 mg
[16] = administered by inhalation following LPS instillation
[17] = administered intratracheally following LPS instillation

CCCCCCCC(=O)NCCCC[C@H](NC(=O)[C@H](Cc1c[nH]c2ccccc12)NC(=O)[C@H](CC(N)=O)NC(=O)[C@@H]1CCC(=O)N1)C(=O)O [ZEP3Na, pGlu-Asn-Trp-Lys(Octanoyl)-ONa] ([pGlu]NWK(Octanoyl)-OH)
bronchoalveolar eosinophils percentage (0.2 mg LPS, ZEP3Na 0.1 and 0.4 mg, compared to untreated mice that received 0.2 mg LPS): significant decrease; also recorded: significantly inhibited | B cells (%) [1]: 0.163% | Eosinophils (%) [1]: 0.412% | Macrophages & dendritic cells (%) [1]: 66.715% | Neutrophils (%) [1]: 6.816% | T cells (%) [1]: 3.078% | B cells (%) [2]: 0.320% and 0.208% and 0.091% and 0.218% and 0.150% and 0.089% and 0.103% and 0.162% and 0.147% and 0.138% | Eosinophils (%) [2]: 0.192% and 0.556% and 0.185% and 0.196% and 0.692% and 0.058% and 0.261% and 0.828% and 0.606% and 0.546% | Macrophages & dendritic cells (%) [2]: 69.267% and 65.626% and 66.568% and 65.527% and 65.957% and 70.380% and 68.287% and 64.068% and 65.131% and 66.345% | Neutrophils (%) [2]: 8.302% and 7.056% and 4.882% and 7.770% and 5.279% and 3.207% and 3.871% and 12.158% and 8.592% and 7.044% | T cells (%) [2]: 3.447% and 3.524% and 4.627% and 2.747% and 2.636% and 1.788% and 2.856% and 2.681% and 3.118% and 3.354% | B cells (%) [3]: 0.176% | Eosinophils (%) [3]: 0.277% | Macrophages & dendritic cells (%) [3]: 72.219% | Neutrophils (%) [3]: 4.248% | T cells (%) [3]: 1.983% | B cells (%) [4]: 0.310% and 0.225% and 0.162% and 0.154% and 0.106% and 0.100% and 0.160% and 0.223% and 0.144% | Eosinophils (%) [4]: 0.151% and 0.400% and 0.136% and 0.176% and 0.138% and 0.390% and 0.192% and 0.540% and 0.366% | Macrophages & dendritic cells (%) [4]: 72.760% and 67.646% and 73.862% and 72.372% and 77.634% and 73.286% and 72.368% and 67.355% and 72.688% | Neutrophils (%) [4]: 3.325% and 7.965% and 2.600% and 3.496% and 2.405% and 3.740% and 3.111% and 7.438% and 4.152% | T cells (%) [4]: 2.519% and 3.322% and 1.247% and 1.675% and 1.513% and 1.348% and 1.817% and 2.755% and 1.654% | B cells (%) [5]: 0.164% | Eosinophils (%) [5]: 0.833% | Macrophages & dendritic cells (%) [5]: 20.180% | Neutrophils (%) [5]: 59.048% | T cells (%) [5]: 2.194% | B cells (%) [6]: 0.118% and 0.102% and 0.048% and 0.030% and 0.045% and 0.489% and 0.052% and 0.572% and 0.017% | Eosinophils (%) [6]: 0.170% and 0.064% and 1.024% and 0.755% and 0.646% and 3.005% and 0.568% and 0.840% and 0.425% | Macrophages & dendritic cells (%) [6]: 71.986% and 72.475% and 1.316% and 0.956% and 1.424% and 16.916% and 1.107% and 14.732% and 0.713% | Neutrophils (%) [6]: 6.007% and 2.454% and 77.259% and 86.115% and 82.630% and 57.391% and 82.523% and 54.903% and 82.147% | T cells (%) [6]: 0.991% and 1.527% and 0.804% and 0.573% and 0.865% and 5.340% and 0.937% and 8.033% and 0.675% | B cells (%) [7]: 0.054% | Eosinophils (%) [7]: 0.475% | Macrophages & dendritic cells (%) [7]: 12.756% | Neutrophils (%) [7]: 67.517% | T cells (%) [7]: 0.895% | B cells (%) [8]: 0.014% and 0.011% and 0.028% and 0.024% and 0.167% and 0.138% and 0.026% and 0.022% | Eosinophils (%) [8]: 0.303% and 0.448% and 0.323% and 0.298% and 1.427% and 0.195% and 0.530% and 0.280% | Macrophages & dendritic cells (%) [8]: 0.470% and 0.297% and 0.271% and 0.442% and 30.597% and 68.407% and 0.798% and 0.764% | Neutrophils (%) [8]: 77.586% and 88.700% and 84.629% and 80.400% and 39.818% and 3.154% and 84.929% and 80.922% | T cells (%) [8]: 0.383% and 0.495% and 0.512% and 0.577% and 1.800% and 2.098% and 0.609% and 0.685% | B cells (%) [9]: 0.097% | Eosinophils (%) [9]: 0.210% | Macrophages & dendritic cells (%) [9]: 2.327% | Neutrophils (%) [9]: 79.428% | T cells (%) [9]: 1.662% | B cells (%) [10]: 0.040% and 0.064% and 0.259% and 0.230% and 0.080% and 0.054% and 0.069% and 0.053% and 0.045% and 0.075% | Eosinophils (%) [10]: 0.247% and 0.204% and 0.223% and 0.251% and 0.143% and 0.176% and 0.180% and 0.265% and 0.225% and 0.192% | Macrophages & dendritic cells (%) [10]: 2.218% and 1.674% and 5.674% and 2.257% and 0.618% and 1.800% and 1.175% and 5.084% and 1.252% and 1.516% | Neutrophils (%) [10]: 84.112% and 84.283% and 69.683% and 74.854% and 81.436% and 79.270% and 71.074% and 80.725% and 85.962% and 82.883% | T cells (%) [10]: 0.940% and 0.742% and 5.066% and 3.187% and 1.024% and 1.045% and 1.327% and 0.892% and 1.131% and 1.271% | B cells (%) [11]: 0.092% | Eosinophils (%) [11]: 0.270% | Macrophages & dendritic cells (%) [11]: 24.471% | Neutrophils (%) [11]: 55.279% | T cells (%) [11]: 1.175% | B cells (%) [12]: 0.045% and 0.054% and 0.029% and 0.019% and 0.100% and 0.153% and 0.286% and 0.103% and 0.037% | Eosinophils (%) [12]: 0.243% and 0.159% and 0.151% and 0.192% and 0.238% and 0.345% and 0.577% and 0.237% and 0.288% | Macrophages & dendritic cells (%) [12]: 4.399% and 1.327% and 0.529% and 0.437% and 1.661% and 60.592% and 75.765% and 73.903% and 1.626% | Neutrophils (%) [12]: 77.353% and 85.551% and 87.483% and 77.212% and 72.881% and 9.005% and 3.108% and 3.716% and 81.207% | T cells (%) [12]: 1.035% and 0.833% and 0.582% and 0.685% and 1.665% and 2.779% and 0.977% and 1.174% and 0.843% | Eosinophils [13]: − | Macrophages [13]: + | Eosinophils [14]: − | Macrophages [14]: + | B cells [15]: + | Eosinophils [15]: − | Macrophages [15]: + | Neutrophils [15]: − | T cells [15]: − | B cells (LPS 0.8 mg + ZEP3Na (INH) 5 mg): + | Eosinophils (LPS 0.8 mg + ZEP3Na (INH) 5 mg): − | Macrophages (LPS 0.8 mg + ZEP3Na (INH) 5 mg): + | Neutrophils (LPS 0.8 mg + ZEP3Na (INH) 5 mg): − | T cells (LPS 0.8 mg + ZEP3Na (INH) 5 mg): − | levels of T cells, eosinophils, neutrophils [16]: significantly inhibited the expression and reduced the levels | levels of macrophages and B cells [16]: increased the levels | levels of eosinophils [17]: significantly inhibited the expression and reduced the levels | levels of macrophages [17]: increased the levels
